Measurements reported in patent US20250213736A1, “SCISSION-ENHANCED NUCLEAR IMAGING AND TREATMENT” (The General Hospital Corporation, priority 2022, published 2025).

Experiment: LCMS analysis of DOTA-TCO-NHS linker immolation after Tz treatment in PBS (pH 7.4)
Type: physicochemical
Conditions: PBS with tetrazine (Tz-amine) added; 100 μM DOTA linker treated with 10 mM Tz-amine, PBS pH 7.4, LCMS; read-out: kinetics of linker immolation T1/2
Method: FIG. 6A contains line plots showing LCMS analysis of DOTA-TCO-NHS with varying ratios of HK-Tz added in PBS (pH 7.4). DOTA-TCO-NHS was synthesized as described in FIG. 3C, Characterized by NMR and then subjected to Tz treatment. Aliquots of 100 μM DOTA linker were treated with 10 mM Tz-amine and analyzed by LCMS after 30 min and 3 hours to determine the percentage of intact linker remaining. Shown are the kinetics of linker immolation (T1/2 12 min).

- half-life at 100 μM: 12 min
SMILES: CN(CC(=O)NCCCNC(=O)CCOCCOCCOCCOCCC(=O)ON1C(=O)CCC1=O)C(=O)OC1/C=C/C(OC(=O)N(C)CC(=O)NCCCNC(=O)CN2CCN(CC(=O)O)CCN(CC(=O)O)CCN(CC(=O)O)CC2)CCCC1 (stereo not shown) [DOTA-TCO-NHS]
